Experimental data published in ChEMBL document CHEMBL5370591, “A Potent and Narrow-Spectrum Antibacterial against Clostridioides difficile Infection” (J Med Chem, 2023).
Values after ≈ are worked out from the molar mass of the structure shown.

How the values were obtained:
Clostridioides difficile = experiment: Antibacterial activity against Clostridium difficile ATCC 43255 measured after 48 hrs by two fold serial dilution method; type: functional
THP-1 = experiment: Cytotoxicity against human THP-1 cells assessed as increase in LDH release incubate for 24 hrs by trypan-blue staining based analysis; type: functional, cell-based; details: THP-1, 24 h
[1] = Selectivity ratio of IC50 for human THP-1 cells to MIC for Clostridium difficile ATCC 43255; type: toxicity

Row | Compound | MIC (Clostridioides difficile) [µg/mL] | IC50 (THP-1) [µg/mL] | selectivity ratio [1]
1 | FC(F)(F)c1ccc(Oc2ccc(-c3noc(-c4cc[nH]n4)n3)cc2)cc1 | > 128 |  | 
2 | CN1CCC(Oc2ccc(-c3noc(-c4nc([N+](=O)[O-])c[nH]4)n3)cc2)C1.Cl (stereo not given) | > 128 |  | 
3 | N#Cc1ccc(Oc2ccc(-c3noc(-c4ccc(O)cc4)n3)cc2)cc1 | > 128 |  | 
4 | Nc1cc(-c2nc(-c3ccc(Oc4ccc(C(F)(F)F)cc4)cc3)no2)cnc1O | > 128 |  | 
5 | O=[N+]([O-])c1cc(Oc2ccc(C(F)(F)F)cc2)cnc1-c1noc(-c2ccc(O)cc2)n1 | > 128 |  | 
6 | Oc1ccc(-c2nc(-c3ccc4oc5ccc(F)cc5c4c3)no2)cc1 | > 128 |  | 
7 | Oc1ccc(-c2nc(-c3ccc4oc5ccc(C(F)(F)F)cc5c4c3)no2)cc1 | > 128 |  | 
8 | FC(F)(F)c1ccc(Oc2ccc(-c3noc(-c4n[nH]cc4Cl)n3)cc2)cc1 | > 128 |  | 
9 | CC(C)(C)OC(=O)N1CCC(Nc2c[nH]nc2-c2nc(-c3ccc(Oc4ccc(C(F)(F)F)cc4)cc3)no2)CC1 | > 128 |  | 
10 | Nc1ccc(-c2nc(-c3ccc(OC4CCCC4)cc3)no2)cc1 | > 128 |  | 
11 | Oc1ccc(-c2noc(-c3ccc(OC4CCCC4)cc3)n2)cc1 | 4 (≈ 12.4 µM) | 8.5 (≈ 26.4 µM) | 2
12 | Oc1ccc(Nc2nc(-c3ccc(OC4CCCC4)cc3)no2)cc1 | 32 (≈ 94.8 µM) |  | 
13 | c1cc2cc(-c3nc(-c4ccc5c(c4)CCO5)no3)ccc2[nH]1 | > 128 |  | 
14 | Oc1ccc(-c2nc(-c3ccc(Oc4ccccc4CBr)cc3)no2)cc1 | 8 (≈ 18.9 µM) |  | 
15 | O=[N+]([O-])c1ccccc1Oc1ccc(-c2noc(-c3ccc(O)cc3)n2)cc1 | 4 (≈ 10.7 µM) | 16 (≈ 42.6 µM) | 3
16 | O=[N+]([O-])c1cn(CCO)c(-c2nc(-c3ccc(OC4CCCC4)cc3)no2)n1 | > 128 |  | 
17 | Oc1ccc(Cc2nc(-c3ccc(OC4CCCC4)cc3)no2)cc1 | 16 (≈ 47.6 µM) |  | 
18 | Oc1ccc(-c2nc(-c3ccc4[nH]c5ccccc5c4c3)no2)cc1 | > 128 |  | 
19 | O=C(c1ccc(-c2noc(-c3ccc(O)cc3)n2)cc1)C(F)(F)F | 8 (≈ 23.9 µM) |  | 
20 | COc1ccc(-c2nc(-c3ccc(Oc4ccc(C(F)(F)F)cc4)cc3)no2)cc1OC | > 128 |  | 
21 | COc1ccc(-c2nc(-c3ccc(Oc4ccc(C(F)(F)F)cc4)cc3)no2)cc1[N+](=O)[O-] | > 128 |  | 
22 | FC(F)(F)c1ccc(Oc2ccc(-c3noc(-c4n[nH]cc4Nc4n[nH]c5ccccc45)n3)cc2)cc1 | > 128 |  | 

Row | Compound | MIC (Clostridioides difficile) [µg/mL] | IC50 (THP-1) [µg/mL] | selectivity ratio [1]
23 | Oc1ccc(-c2nc(-c3ccc(N4CCOCC4)cc3)no2)cc1 | > 128 |  | 
24 | O=[N+]([O-])c1c[nH]c(Nc2c[nH]nc2-c2nc(-c3ccc(Oc4ccc(C(F)(F)F)cc4)cc3)no2)c1 | 8 (≈ 16.1 µM) |  | 
25 | Fc1ccccc1-c1noc(-c2ccc3[nH]ccc3c2)n1 | > 128 |  | 
26 | Nc1c[nH]nc1-c1nc(-c2ccc(Oc3ccc(C(F)(F)F)cc3)cc2)no1 | > 128 |  | 
27 | Oc1cc(-c2nc(-c3ccc(Oc4ccc(C(F)(F)F)cc4)cc3)no2)cc(F)c1O | > 128 |  | 
28 | Cn1c(-c2nc(-c3ccc(OC4CCCC4)cc3)no2)cnc1[N+](=O)[O-] | 32 (≈ 90.1 µM) |  | 
29 | Nc1cncc(-c2nc(-c3ccc(Oc4ccc(C(F)(F)F)cc4)cc3)no2)c1 | > 128 |  | 
30 | Oc1ccc(-c2nc(-c3ccc(OC(F)(F)F)cc3)no2)cc1 | 64 (≈ 199 µM) |  | 
31 | CC(C)(C)OC(=O)N1CCC(Oc2ccc(-c3noc(-c4nc([N+](=O)[O-])c[nH]4)n3)cc2)CC1 | > 128 |  | 
32 | FC(F)(F)c1ccc(Oc2ccc(-c3noc(-c4cn[nH]c4)n3)cc2)cc1 | > 128 |  | 
33 | Nc1ccc(-c2nc(-c3ccc(Oc4ccc(C(F)(F)F)cc4)cc3)no2)cc1F | > 128 |  | 
34 | Oc1ccc(-c2nc(-c3ccc4c(c3)OCO4)no2)cc1 | > 128 |  | 
35 | COC(OC)c1ccc(-c2noc(-c3ccc(O)cc3)n2)cc1 | > 128 |  | 
36 | O=[N+]([O-])c1c[nH]nc1-c1nc(-c2ccc(Oc3ccc(I)cc3)cc2)no1 | 4 (≈ 8.42 µM) | 100 (≈ 210 µM) | 25
37 | Oc1ccc(-c2nc(-c3ccc(Oc4cccc(I)c4)cc3)no2)cc1 |  | 17 (≈ 37.3 µM) | 4
38 | CC(C)S(=O)(=O)Oc1ccc(-c2noc(-c3ccc(O)cc3)n2)cc1 | > 128 |  | 
39 | CCCOc1ccc(-c2noc(-c3ccc(O)cc3)n2)cc1 | > 128 |  | 
40 | Cl.NCCCOc1ccc(-c2noc(-c3ccc(O)cc3)n2)cc1 | 64 |  | 
41 | c1cc(-c2noc(-c3ccc4c(c3)CCN4)n2)ccc1OC1CCCC1 | > 128 |  | 
42 | Oc1cccc(/C=C/c2nc(-c3ccc(OC4CCCC4)cc3)no2)c1 | > 128 |  | 
43 | NC1CCN(c2ccc(-c3noc(-c4ccc(O)cc4)n3)cc2)CC1 | 64 (≈ 190 µM) |  | 
